Results as given in patent US11008321B2, “Crystalline form of an avibactam derivative” (ARIXA PHARMACEUTICALS, INC., priority 2019, dated 2021).

How the values were obtained:
[1] = Dynamic vapor sorption (hygroscopicity); assay type: physicochemical
Method: The hygroscopicity of crystalline ethyl 3-(((((1R,2S,5R)-2-carbamoyl-7-oxo-1,6-diazabicyclo[3.2.1]octan-6-yl)oxy)sulfonyl)oxy)-2,2-dimethylpropanoate anhydrate (1) was evaluated during one vapor sorption/desorption cycle using a SMS DVS Intrinsic from Surface Measurement Systems set at 25° C., with a nitrogen (N2) gas flow rate of 200 mL/min, a dm/dt of 0.02%/min and a minimum dm/dt stability duration of 10 min. Samples (10 mg to 20 mg) were first dried at 25° C. for 180 min under a nitrogen atmosphere. The samples were considered equilibrated with the weight change during a 2-min interval was less than 0.01%. To evaluate the DVS the samples were exposed to a humidity cycle ramped/de-ramped from 5% RH to 95% RH at 10% RH intervals. At each humidity interval, the samples were equilibrated as determined by a less than 0.01% weight change during 5 min.

[2] = Stability in aqueous suspension formulation (XRPD); assay type: physicochemical; settings: 25° C., 24 hours; 0.25 wt % Tween 80, 10 wt % PEG 400, 0.5 wt % methylcellulose, pH 3.0 citrate buffer
Method: X-ray powder diffraction (XPRD) analysis was performed using a Panalytical X-Pert Powder XPRD (Malvem Panalytical Ltd.) on a Si zero-background holder. The 20 position was calibrated against a Panalytical Si standard disc. The X-ray wavelength was Kα2/Kα1 (1.540598 Å/1.544425 Å) at a 0.5 intensity ratio. The X-ray tube was set at an output voltage of 45 kV and a current of 40 mA. A ⅛° fixed divergence slit was used and the diffraction patterns were obtained from 3° to 40° (°2θ) in a continuous scan mode using a step size of 0.01310 (2θ) and a scan speed of 0.145 deg/min. An aqueous formulation of crystalline anhydrate (1) was prepared by suspending 100 mg crystalline anhydrate (1) in 100 mL of an aqueous solution containing 0.25 wt % Tween® 80, 10 wt % PEG 400, 0.5 wt % methylcellulose (400 cps), and a pH 3.0 citrate buffer. The suspension was sonicated and equilibrated for 24 hours at 25° C. before filtering out the crystalline anhydrate (1).

[3] = Stability on exposure to ambient conditions and formulation processing; assay type: physicochemical
[4] = Jet milling, crystalline form by XRPD before and after; assay type: physicochemical; settings: jet milled, particle size about 8.6 μm
Method: X-ray powder diffraction (XPRD) analysis was performed using a Panalytical X-Pert Powder XPRD (Malvem Panalytical Ltd.) on a Si zero-background holder. The 20 position was calibrated against a Panalytical Si standard disc. The X-ray wavelength was Kα2/Kα1 (1.540598 Å/1.544425 Å) at a 0.5 intensity ratio. The X-ray tube was set at an output voltage of 45 kV and a current of 40 mA. A ⅛° fixed divergence slit was used and the diffraction patterns were obtained from 3° to 40° (°2θ) in a continuous scan mode using a step size of 0.01310 (2θ) and a scan speed of 0.145 deg/min. Crystalline anhydrate (1) was jet milled to obtain a uniform particle size distribution centered at a about 8.6 μm. An Alpine 50AS (PDS-PL-JM-01) Jet Mill (Hosokawa Alpine) was used to prepare the formulation. The injector gas pressure was 4.0 Bar and the grinding gas pressure was 3.5 Bar. Five (5) gm of crystalline anhydrate (1) was gradually added to the jet mill and collected. The milled product was stored at a temperature from 2° C. to 8° C.

[5] = Thermogravimetric analysis; assay type: physicochemical; settings: 10° C./min, N2
Method: Thermogravimetric analysis was performed using a TA Instruments Q500 TGA calibrated using a nickel reference standard. Samples were placed in an open platinum pan and after equilibrating at 35° C., the samples were heated under a nitrogen (N2) atmosphere at a rate of 10° C./min to a final temperature of 200° C. TGA curves for crystalline ethyl 3-(((((1R,2S,5R)-2-carbamoyl-7-oxo-1,6-diazabicyclo[3.2.1]octan-6-yl)oxy)sulfonyl)oxy)-2,2-dimethylpropanoate anhydrate are shown in FIGS. 2 and 4 show a weight loss of 9.7% between 125° C. to 150° C. The weight loss form 30° C. to 125° C. was 0.77%.

[6] = trans isomer vs cis isomer; cited from earlier work

SMILES	change of crystalline form during water absorption/desorption (reversibility of DVS isotherm) ([1]; 25° C., one sorption/desorption cycle, 5% RH to 95% RH)	maximum increase in mass (moisture absorption) ([1]; 25° C./95% RH, humidity range 0% RH to 95% RH, reversible)	stability in an aqueous suspension (XRPD similarity) [2]	stability following exposure to ambient conditions ([3]; 25° C./60% RH)	stability during formulation processing conditions ([3]; formulation processing conditions)	crystalline form before and after jet-milling (XRPD) [4]	weight loss (TGA) ([5]; 30° C. to 125° C.)	weight loss (TGA) ([5]; between 125° C. to 150° C.)	antibiotic activity of trans isomer relative to cis isomer [6]
CCOC(=O)C(C)(C)COS(=O)(=O)ON1C(=O)N2C[C@H]1CC[C@H]2C(N)=O [crystalline anhydrate (1), ethyl 3-(((((1R,2S,5R)-2-carbamoyl-7-oxo-1,6-diazabicyclo[3.2.1]octan-6-yl)oxy)sulfonyl)oxy)-2,2-dimethylpropanoate]	does not change	about 3 wt %	stable	stable	stable	the same	0.77%	9.7%	
Nc1nc(/C(=C/CC(=O)O)C(=O)N[C@@H]2C(=O)N3C(C(=O)O)=CCS[C@H]23)cs1 [Ceftibuten, (6R,7R)-7-((Z)-2-(2-amino-4-thiazolyl)-4-carboxycrotonamido)-8-oxo-5-thia-1-azabicyclo(4.2.0)oct-2-ene-2-carboxylic acid]									about one-eighth
